Read-outs that look alike come from different tables or passages of the source.
Target: T1, mTOR (Homo sapiens, UniProt P42345)
T1 construct: FLAG; made in house
Assay: In Vitro mTOR Kinase Assay (Echo), Test (a)(ii)
Assay type: biochemical
How it was run: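 Enzyme: HEK293-expressed, FLAG-purified mTOR C-terminal fragment (aa 1362-2549). Rxn 2 h RT with biotinylated peptide, stopped with EDTA 50 mM/BSA/Tris pH 7.4. Detection: T389 phospho-antibody AlphaScreen, 680 nm excitation. IC50.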

[1] = table of enzyme assay Test (a)(ii), read-out: Test (a)(ii) IC50

T1 sequence (P42345 1362-2549): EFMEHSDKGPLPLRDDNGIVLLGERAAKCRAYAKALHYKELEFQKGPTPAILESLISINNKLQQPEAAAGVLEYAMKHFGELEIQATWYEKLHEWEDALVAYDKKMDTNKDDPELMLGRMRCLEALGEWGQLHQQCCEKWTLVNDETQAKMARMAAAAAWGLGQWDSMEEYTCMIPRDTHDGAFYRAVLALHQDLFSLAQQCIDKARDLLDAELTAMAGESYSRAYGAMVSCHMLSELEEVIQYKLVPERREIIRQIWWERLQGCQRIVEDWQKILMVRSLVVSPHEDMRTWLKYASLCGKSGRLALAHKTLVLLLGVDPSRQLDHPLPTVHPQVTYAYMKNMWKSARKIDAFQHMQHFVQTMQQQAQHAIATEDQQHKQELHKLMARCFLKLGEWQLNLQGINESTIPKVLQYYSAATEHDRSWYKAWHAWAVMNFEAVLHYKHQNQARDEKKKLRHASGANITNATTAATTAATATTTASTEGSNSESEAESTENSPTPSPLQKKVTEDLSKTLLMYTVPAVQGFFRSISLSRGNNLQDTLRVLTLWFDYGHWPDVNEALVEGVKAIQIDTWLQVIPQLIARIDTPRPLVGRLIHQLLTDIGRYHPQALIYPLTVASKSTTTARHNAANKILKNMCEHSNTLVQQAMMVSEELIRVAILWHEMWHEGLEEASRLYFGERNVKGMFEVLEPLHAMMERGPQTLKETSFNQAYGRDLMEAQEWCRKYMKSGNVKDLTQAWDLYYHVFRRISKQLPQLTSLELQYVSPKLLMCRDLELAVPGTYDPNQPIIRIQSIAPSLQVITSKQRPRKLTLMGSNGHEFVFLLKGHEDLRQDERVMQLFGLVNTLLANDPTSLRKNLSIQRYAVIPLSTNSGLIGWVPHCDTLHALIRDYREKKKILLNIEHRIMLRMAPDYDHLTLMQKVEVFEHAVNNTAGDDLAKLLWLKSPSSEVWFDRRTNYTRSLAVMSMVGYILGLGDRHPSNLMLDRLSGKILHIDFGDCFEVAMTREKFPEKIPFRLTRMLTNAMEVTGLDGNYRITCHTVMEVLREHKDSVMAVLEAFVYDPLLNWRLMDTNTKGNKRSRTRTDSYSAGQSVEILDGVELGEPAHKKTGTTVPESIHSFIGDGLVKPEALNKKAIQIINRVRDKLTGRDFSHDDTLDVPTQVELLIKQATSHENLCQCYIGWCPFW

Row | SMILES | IC50 [1] | IC50 (read-out: mTOR Kinase Assay (Echo))
1 | CN(C)CCNC(=O)Nc1ccc(-c2nc(N3CCOCC3)cc(C3(S(=O)(=O)C4CC4)CCC3)n2)cc1 [Example 13t, 1-[4-[4-(1-cyclopropylsulfonylcyclobutyl)-6-morpholin-4-ylpyrimidin-2-yl]phenyl]-3-(2-dimethylaminoethyl)urea] | 172 nM | 
2 | C[C@H]1COCCN1c1cc(C2(S(=O)(=O)C3CC3)CCOCC2)nc(-c2ccc(NC(=O)NCCN(C)C)cc2)n1 [Example 23g, 1-[4-[4-(4-cyclopropylsulfonyloxan-4-yl)-6-[(3S)-3-methylmorpholin-4-yl]pyrimidin-2-yl]phenyl]-3-(2-dimethylaminoethyl)urea] | 1210 nM | 
3 | C[C@H]1COCCN1c1cc(C2(S(=O)(=O)CCCO)CCC2)nc(-c2ccc(NC(=S)NC(C)(C)CO)cc2)n1 [Example 99d, 3-(1-hydroxy-2-methylpropan-2-yl)-1-[4-[4-[1-(3-hydroxypropylsulfonyl)cyclobutyl]-6-[(3S)-3-methylmorpholin-4-yl]pyrimidin-2-yl]phenyl]thiourea] | 219 nM | 
4 | CCS(=O)(=O)C1(c2cc(N3CCOC[C@@H]3C)nc(-c3ccc(NC(=S)NCCO)cc3)n2)CC1 [Example 88d, 1-[4-[4-(1-ethylsulfonylcyclopropyl)-6-[(3S)-3-methylmorpholin-4-yl]pyrimidin-2-yl]phenyl]-3-(2-hydroxyethyl)thiourea] | 4 nM | 
5 | CCNC(=O)Nc1ccc(-c2nc(N3CCOCC3CO)cc(C3(S(=O)(=O)c4ccccc4)CC3)n2)cc1 (stereo not shown) [Example 71, 1-[4-[4-[1-(Benzenesulfonyl)cyclopropyl]-6-[3-(hydroxymethyl)morpholin-4-yl]pyrimidin-2-yl]phenyl]-3-ethylurea] | 18.2 nM | 
6 | C[C@H]1COCCN1c1cc(C2(S(=O)(=O)CCCO)CCC2)nc(-c2ccc(NC(=O)NCCF)cc2)n1 [Example 43n, 3-(2-fluoroethyl)-1-[4-[4-[1-(3-hydroxypropylsulfonyl)cyclobu-tyl]-6-[(3S)-3-methylmorpholin-4-yl]pyrimidin-2-yl]phenyl]urea] | 11.9 nM | 

Now from value to molecule:

Row | IC50 [1] | IC50 (read-out: mTOR Kinase Assay (Echo)) | SMILES
7 | 16 nM |  | C[C@H]1COCCN1c1cc(C2(S(=O)(=O)c3ccc(F)c(Cl)c3)CC2)nc(-c2ccc(NC(=O)NCC(F)F)cc2)n1 [Example 95e, 1-[4-[4-[1-(3-chloro-4-fluorophenyl)sulfonyl-cyclopropyl]-6-[(3S)-3-methylmorpholin-4-yl]pyrimi-din-2-yl]phenyl]-3-(2,2-difluoroethyl)urea]
8 | 27.3 nM |  | Cc1cc(F)ccc1S(=O)(=O)C1(c2cc(N3CCOC[C@@H]3C)nc(-c3ccc(NC(=O)Nc4cnn(C)c4)cc3)n2)CC1 [Example 82f, 1-[4-[4-[1-(4-fluoro-2-methylphenyl)sulfonylcyclopropyl]-6-[(3S)-3-methylmorpholin-4-yl]pyrimidin-2-yl]phenyl]-3-(1-methylpyrazol-4-yl)urea]
9 | 2.17 nM |  | CNC(=O)Nc1ccc(-c2nc(N3CCOC[C@@H]3C)cc(C3(S(=O)(=O)c4ccccc4C)CC3)n2)cc1 [Example 54, 3-Methyl-1-[4-[4-[(3S)-3-methylmorpholin-4-yl]-6-[1-(2-methylphenyl)sulfonylcyclopropyl]pyrimidin-2-yl]phenyl]urea]
10 | 1.23 nM |  | C[C@H]1COCCN1c1cc(C2(S(=O)(=O)C(C)(C)C)CC2)nc(-c2ccc(NC(=O)NCCO)cc2)n1 [Example 18g, 1-[4-[4-(1-tert-butylsulfonylcyclopropyl)-6-[(3S)-3-methylmorpholin-4-yl]pyrimidin-2-yl]phenyl]-3-(2-hydroxyethyl)urea]
11 | 4.2 nM |  | C[C@H]1COCCN1c1cc(C2(S(C)(=O)=O)CC2)nc(-c2ccc(NC(N)=O)cc2)n1 [Example 29, [4-[4-[(3S)-3-Methylmorpholin-4-yl]-6-(1-methylsulfonylcyclopropyl)pyrimidin-2-yl]phenyl]urea]
12 | 1.55 nM | 1.38 nM | C[C@H]1COCCN1c1cc(C2(S(C)(=O)=O)CC2)nc(-c2ccc(NC(=O)Nc3ccc(Cl)cc3)cc2)n1 [Example 2s, 3-(4-chlorophenyl)-1-[4-[4-[(3S)-3-methylmorpholin-4-yl]-6-(1-methylsulfonylcyclopropyl)pyrimidin-2-yl]phenyl]urea]
